Measured values as given in patent US9549958B2, “Extracts of Cynanchum sp. and active ingredients contained therein in use of arthritis treatment” (INDUSTRIAL TECHNOLOGY RESEARCH INSTITUTE, priority 2011, dated 2017).
Values after ≈ are worked out from the molar mass of the structure shown.

How the values were obtained:
[1] = tested on: TNF-α; assay: TNF-α inhibition in LPS-stimulated activated U937 cells (ELISA); format: cell-based; details: Homo sapiens, U-937, Example 3
Method: A human myeloid leukemia cell line U937 (Rockville, Md.) was obtained from ATCC. The cell line was cultured in a RPMI 1640 medium with a 10% fetal calf serum (FCS) at 37° C., 5% CO2. The cell line maintained in exponential growth. For inducing differentiation, the cells with a starting concentration of 4×10^5 cell/ml were cultured in T150 containing 50 ng/ml PMA (Sigma) for 24 hours. Subsequently, the cells were moved to a fresh medium without PMA and cultured for 48 hours. The cells were collected with rubber policeman (Bellco Glass, Vineland, N.J.) gently scraping the medium bottle for the next step.
The activated U937 cells were seeded into a 96-well plate to form a concentration of 1.6×10^5 cell/well. The ethanol extracts of Cynanchum hancockianum in different concentrations were respectively added 10 μl to the 96-well plate. The final volume of each well was 190 μl. The plate was cultured at 37° C., 5% CO2 for 30 min. Then each well was added 2 μg/ml of lipopolysaccharide (LPS) in PBS 10 μl and cultured at 37° C. for 4 hours. […] The amount of TNF-α was analyzed by an ELISA (TNF-α duoset, R&D, Minneapolis, Minn.). […]
The activated U937 cells obtained from Example 2 were seeded into a 96-well plate to form a concentration of 1.6×10^5 cell/well. […] The amount of TNF-α was analyzed by an ELISA and cell viability was tested by MTT. […]

[2] = tested on: collagen-induced arthritis model; assay: Collagen-induced arthritis model, morbidity and onset; format: in vivo, rat
Method: (§1) 50 μg of a fetus bovine type II collagen (CII, Chondrex) was emulsified in a complete Freund's adjuvant (CFA, Sigma). The ankle volume was measured as the basis of a hindpaw volume. On the eighth day after the primary immune, each rat was injected with 100 μg of the collagen emulsified in IFA (Sigma) to induce arthritis. The carrier control group was i.p. injected with 2 ml/kg of 0.5% CMC rats every two days until day 21. The experimental group was […] antofine isolated from Example 1 according to the following regimes: Group 1 was i.p. injected with 3 mg/kg of antofine every two days until Day 20 and then i.p. injected with 3 mg/kg of antofine per day on Day 21˜23; Group 2 was i.p. injected with 3 mg/kg of antofine every three days until Day 20 and then i.p. injected with 3 mg/kg of antofine per day on Day 21˜23; Group 3 was i.p. injected with 2 mg/kg of antofine every two days until Day 20 and then i.p. injected with 3 mg/kg of antofine per day on Day 21˜23; Group 4 was i.p. injected with 3 mg/kg of antofine per day for 5 days, and then stop administration on the next nine days, and i.p. injected with 3 mg/kg of antofine per day on Day 21˜23.; and All rats were scarified on Day 24.

[3] = Weight changes in collagen-induced arthritis model; format: in vivo, rat; details: various doses of antofine and regimes (Groups 1-4), i.p., rats
Method: as §1

Structure (SMILES): COc1ccc2c3c(c4cc(OC)c(OC)cc4c2c1)C[C@H]1CCCN1C3 [antofine, (−)-antofine]
- IC50 [1]: 7 ng/mL (≈ 0.0193 µM)
- Morbidities and onset of arthritis ([2]; Group 1: 3 mg/kg i.p. every two days until Day 20, then 3 mg/kg per day on Day 21-23): decreased morbidities and delayed onsets
- Morbidities and onset of arthritis ([2]; Group 4: 3 mg/kg i.p. per day for 5 days, stop nine days, 3 mg/kg per day on Day 21-23): decreased morbidities and delayed onsets
- Weight changes [3]: not greatly changed
